From paper PMC5923171, “Novel Zinc-Attenuating Compounds as Potent Broad-Spectrum Antifungal Agents with In Vitro and In Vivo Efficacy” (Antimicrobial Agents and Chemotherapy, 2018) come the findings set out here.

A short description of series [1]: Human hepatocyte (HepG2) proliferation assay. The class given is cell-based. The note with it: human, HepG2 cells, XTT; for EC50 at 24 h: 24 h exposure; for EC50 at 72 h: 72 h exposure. As for the experimental part:
In each well of a 96-well tissue culture plate (GR-655180; Grenier), 10,000 human hepatocytes (HepG2) (85011430; […] Sigma]) supplemented with 2 mM L-[…]-020-1B; Biological Industries), 1% nonessential amino acids (XC-[…]/100; Biosera), and 10% fetal bovine serum (BI-04-007-1A; Biological Industries), and plates were incubated overnight at 37°C and 5% CO2. […] The plate was incubated for a further 24 h or 72 h at 37°C and 5% CO2. The medium was then replaced with 100 μl of freshly prepared 2,3-bis-(2-methoxy-4-nitro-5-sulfophenyl)-2H-tetrazolium-5-carboxanilide salt (XTT) sodium salt solution (0.5 mg/ml of XTT; […]; Sigma) in RPMI 1640 ([…]; Sigma-Aldrich) with 3.83 μg/ml of phenazine methosulfate ([…]; Sigma-Aldrich) and incubated 2 to 3 h at 37°C and 5% CO2 ([43]). The color reaction was measured on Victor X5 plate reader (Perkin-Elmer) at OD450, and the half-maximal effective concentration (EC50) was calculated. Tamoxifen (85256; Sigma) was used as a positive-control compound.

A further series concerns ZafA target genes. The series can be described thus: RT-qPCR of ZafA target genes and genes not regulated by ZafA. As to conditions: zinc-limiting conditions, 2 h; for expression of the ZafA target genes: 21 μg/ml ZAC307, 27 μg/ml ZAC989, 146 μg/ml EDTA, 10.6 μg/ml TPEN; for expression levels of the genes not regulated by ZafA: 21 μg/ml ZAC307, 27 μg/ml ZAC989. The class given is cell-based, Aspergillus fumigatus. As for the experimental part:
A total of 1.5 × 10^6 conidia of the wild-type strain (AF14) were inoculated into 20 ml of 0.7× sRPMI, 0.05% Tween 20, and 1.2% ethanol dispensed into 100-ml culture flasks pretreated with an overnight wash in 2 mM EDTA (pH 8.0) to minimize the presence of metal traces, followed by a thorough washing with ultrapure Milli-Q water. The flasks were subsequently sterilized in an oven at 180°C. The cultures were incubated for 20 h at 37°C and 200 rpm before the following were added: (i) pure ethanol to a final concentration of 1.2% (vol/vol) (as a reference for the transcription profiles of all genes under zinc-limiting conditions), (ii) 1.2% ethanol plus a solution of ZnSO4 to a final concentration 20 μM zinc (as a reference for the transcription profiles of all genes under zinc-replete conditions following the zinc shift), (iii) 1.2% ethanol plus a solution of EDTA to a final concentration of 500 μM, (iv) 1.2% ethanol plus a solution of TPEN to a final concentration of 10.6 μg/ml, and (v) a 5 mM solution of each test compound (ZAC307 or ZAC989) dissolved in 80% ethanol to a final concentration of 75 μM and 1.2% ethanol (which correspond to 21 μg/ml and 27 μg/ml, respectively). After compound addition, cultures were incubated for 2 h at 37°C and 200 rpm and mycelia were harvested by filtration through filter paper, washed twice with sterile waterm and snap-frozen in liquid nitrogen. After grinding of the mycelia in the presence of liquid nitrogen, total RNA was extracted using an RNeasy plant minikit (74904; Qiagen) according to the manufacturer's instructions. RNA was eluted in 50 μl of RNase-free water. RNA integrity was verified on 0.8% agarose gels stained with ethidium bromide. RNA was stored at −80°C until use.
Total RNA concentration and quality were determined by UV spectrometry (NanoDrop ND1000 spectrophotometer; Thermo Fisher Scientific), and all samples were brought to a final concentration of 150 ng/μl. Total RNA (1.5 μg) was treated with RQ1 DNase I (M610; Promega) and subsequently assessed by conventional PCR for the complete absence of genomic DNA (gDNA). Subsequently, 1 μg of DNase-treated RNA was reversed transcribed using SuperScript II reverse transcriptase (18064-014; Invitrogen, Thermo Fisher Scientific), with random hexamers (11034731001; Roche Diagnostics) as primers. Prior to qPCRs, cDNA samples were diluted 1:3 in water, except in the case of reactions against the 18S rRNA, for which samples were diluted 1:1,200 in water. qPCRs were performed on a Bio-Rad CFX96 instrument. A typical qPCR mixture (10 μl) contained 13.5 ng of cDNA (32 pg when the qPCR was for 18S rRNA), a specific pair of primers (150 nM final concentration), and the SYBR premix Ex Taq (RR420A; TaKaRa). For all qPCRs, 40 cycles were performed using the following cycling conditions: denaturation at 95°C for 10 s, annealing at 59°C for 20 s, and extension at 72°C for 20 s. The relative expression ratio (rER) was calculated using the threshold cycle (2^−ΔΔCT) method ([42]) using the expression level of the 18S rRNA as an internal reference.

Series [2] is described as follows: Fluorescence-based competition assay using FluoZin-3 (compound-Zn2+ dissociation constant). The class given is binding. As to conditions: FluoZin-3 competition, PBS pH 7.4, room temperature; read-out: Compound-Zn^2+ KD. As for the experimental part: The dissociation constant (Kd) of zinc to zinc-attenuating compounds was determined at room temperature using FluoZin-3 (F24194; […] Testing buffer consisted of PBS (pH 7.4) with 200 nM ZnCl2 and 500 nM FluoZin-3. In a microtiter plate, 98 μl of testing buffer was mixed with 2 μl of compound at a range of concentrations to determine the half-maximal inhibitory concentration (IC50). Testing plates were incubated for 2 min before being read at an excitation wavelength of 485 nm and an emission wavelength of 516 nm with a Fluoroskan Ascent microplate fluorometer (Thermo Fisher Scientific).

The subject of another series is C. albicans. The series can be described thus: Fungal growth recovery after prolonged exposure (MFC). The class given is cell-based, Candida albicans. The note with it: for growth recovery after exposure: 5 days of exposure, then compound-free medium (EDTA: during compound incubation, 0.22 to 22 μg/ml).

≈ marks a conversion by molar mass, not a printed value. Where only a bound is given, the exact number is not on record here.

With `c1ccc(CN(CCN(Cc2ccccn2)Cc2ccccn2)Cc2ccccn2)nc1` [TPEN, N,N,N’,N’-tetrakis(2-pyridylmethyl)-ethylenediamine], in series [1], the EC50 at 24 h is 1.6 ± 0.2 µg/mL (≈ 3.77 µM) and the EC50 at 72 h worked out at 1.4 ± 0.8 µg/mL (≈ 3.3 µM). Moreover, the “expression of the ZafA target genes” value in the series on ZafA target genes is “higher expression of the ZafA target genes than attained with EDTA”. Also, the Kd in series [2] is less than 10 nM. Further, the “growth recovery after exposure” value in the series on C. albicans is “poor recovery”. In addition, the “concentration above which exposed cells showed poor recovery” value in the series on C. albicans (prolonged exposure) was “above 2 μg/ml”.
In series [1], `CN(C)c1cc(-n2nc(-c3ccccc3)cc2O)ncn1` [ZAC307, 2-[6-(dimethylamino)pyrimidin-4-yl]-5-phenyl-pyrazol-3-ol] registered an EC50 at 24 h greater than 28 µg/mL and an EC50 at 72 h of 13.2 ± 0.8 µg/mL (≈ 46.9 µM). Further, in the series with ZafA target genes, the “expression levels of the genes not regulated by ZafA” value is reported as “reduced expression levels for most of the investigated genes that were not regulated by ZafA” and the “expression of the ZafA target genes” value is on record as “inhibited the expression of the ZafA target genes”. Also, the Kd in series [2] is 71 nM. The “growth recovery after exposure” value with C. albicans was “resume normal growth”.
In series [1], `O=C(O)CN(CCN(CC(=O)O)CC(=O)O)CC(=O)O` [EDTA] displayed an EC50 at 24 h greater than 28 µg/mL and an EC50 at 72 h greater than 29 µg/mL. Further, the “expression of the ZafA target genes” value with ZafA target genes is on record as “upregulation of the most direct ZafA target genes”. The Kd in series [2] is less than 10 nM. Further, in the series with C. albicans, the “growth recovery after exposure” value was “resumed visible growth after 48 h of compound incubation”.
For the molecule `Cc1cc(O)n(-c2cc(N3CC[C@H](Oc4cnccc4C#N)C3)ncn2)n1` [ZAC989, 3-[(3S)-1-[6-(5-hydroxy-3-methyl-pyrazol-1-yl)pyrimidin-4-yl]pyrrolidin-3-yl]oxy-pyridine-4-carbonitrile], in series [1], the EC50 at 24 h is greater than 28 µg/mL and the EC50 at 72 h stood at 6.9 ± 0.7 µg/mL (≈ 19 µM). In the series with ZafA target genes, the “expression levels of the genes not regulated by ZafA” value is “did not have a noticeable effect” and the “expression of the ZafA target genes” value is given as “inhibited the expression of the ZafA target genes”. Also, the Kd in series [2] was found to be 13 nM. For the same molecule, in the series with C. albicans, the “growth recovery after exposure” value is “resume normal growth”.
